The values below are quoted from earlier work in US20190350879A1, “METHOD OF TREATING PAIN USING RACEMIC MIXTURE OF S-KETAMINE AND R-KETAMINE” (priority 2017, published 2019).

Data set [1] has as its system N-Methyl-D-Aspartate receptors. The conditions noted are these: S(+)ketamine relative to R-isomer; target not named.
For data set [2] the following is noted: S(+)ketamine compared to R-isomer.

Turning to `CN[C@]1(c2ccccc2Cl)CCCCC1=O` [S(+)ketamine], the “affinity, times greater” value in data set [1] is recorded as “approximately four”. Besides, in data set [2], the psychotomimetic side effects entry is on record as “greater psychotomimetic side effects”.
